Target: bovine serum albumin (Bos taurus, UniProt P02769)
Test: binding kinetics of EB-TATE and bovine serum albumin
Conditions: unlabeled EB-TATE

Sequence of bovine serum albumin (P02769 25-607): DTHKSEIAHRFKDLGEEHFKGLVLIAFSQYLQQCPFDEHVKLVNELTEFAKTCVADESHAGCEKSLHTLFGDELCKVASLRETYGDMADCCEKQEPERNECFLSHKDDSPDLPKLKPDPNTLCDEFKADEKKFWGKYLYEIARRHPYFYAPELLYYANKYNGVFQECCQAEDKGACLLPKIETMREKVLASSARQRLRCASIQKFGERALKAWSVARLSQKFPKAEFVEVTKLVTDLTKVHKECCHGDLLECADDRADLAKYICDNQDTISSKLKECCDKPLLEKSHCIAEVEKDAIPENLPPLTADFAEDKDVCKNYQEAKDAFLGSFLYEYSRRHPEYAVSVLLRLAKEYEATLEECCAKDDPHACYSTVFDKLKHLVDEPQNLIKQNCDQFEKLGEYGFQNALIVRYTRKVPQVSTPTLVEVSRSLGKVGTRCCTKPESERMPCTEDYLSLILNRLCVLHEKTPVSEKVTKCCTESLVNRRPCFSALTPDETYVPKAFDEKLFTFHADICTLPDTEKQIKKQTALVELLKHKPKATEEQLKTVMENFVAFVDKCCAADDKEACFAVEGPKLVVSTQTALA

For Cc1cc(-c2ccc(NC(=O)[C@@H](CCCCNC(=O)CCN3C(=O)CC(SCCC(=O)N[C@H](Cc4ccccc4)C(=O)N[C@H]4CSSCC(C(=O)NC(C(=O)O)[C@@H](C)O)NC(=O)[C@H]([C@@H](C)O)NC(=O)[C@H](CCCCN)NC(=O)[C@@H](Cc5c[nH]c6ccccc56)NC(=O)[C@H](Cc5ccccc5)NC4=O)C3=O)NC(=O)CN3CCN(CC(=O)O)CCN(CC(=O)O)CCN(CC(=O)O)CC3)c(C)c2)ccc1N=Nc1ccc2c(S(=O)(=O)O)cc(S(=O)(=O)O)c(N)c2c1O (some centres unmarked) [EB-TATE], the “Kd, affinity to bovine serum albumin” value was “μM Kd affinity” and the “Kon and Koff, bovine serum albumin” value was “high Kon and low Koff”.

Reference: patent publication US10981866B2 (THE UNITED STATES OF AMERICA, AS REPRESENTED BY THE …, priority 2017, dated 2021)
